Each block holds one compound with its values, some of them ahead of it.
How the values were obtained:
human basophils = test: Histamine release from human basophils (HHB), anti-IgE challenge; type: cell-based; set-up: key to HHB % Inhibition of Histamine Release at 33 µM: *: Indicates not active at 33 µM; conditions: 33 µM drug, human basophils challenged with anti-IgE
Text: HISTAMINE RELEASE FROM HUMAN BASOPHILS (hereinafter HHB)
The HHB assay quantitates active histamine release, and its inhibition by drugs, from basophils of human blood. Thus, the assay provides evaluation of the compounds of formula I for treating the conditions or diseases as is the present invention. As described herein the assay includes modifications of the method described by R. P. Siraganian in "An Automated Continuous-Flow System for the Extraction and Fluorometric Analysis of Histamine", Anal. Biochem., 57, 383-394 (1974).
Blood is drawn from allergic donors (chosen on the basis of adequate histamine release induced by a challenge), using standard venipuncture methods, into Vacutainers with EDTA in water as anticoagulant. The blood samples are placed briefly on a rotary mixer. The blood is mixed with Hespan (hydroxy ethyl starch, 0.5 ml per 1.0 ml of blood), the tube inverted several times to mix and then left undisturbed at room temperature until a sharp separation is observed between the settled red cells and the leukocyte and platelet-rich plasma. This usually occurs within 35-45 minutes.
The plasma fraction is removed and centrifuged for 12 minutes at 4°C at 1050 RPM (100 Xg). The platelets remain in the plasma and are discarded. The pelleted leukocytes are shaken gently to disrupt the cell button and washed twice with HA buffer containing 0.005 M EDTA and resuspended in HACM buffer to approximately one-quarter the original blood volume. A sample is prepared for Hematology, where a total white blood cell and platelet count is done using a Coulter Counter.
Aliquots (0.1 ml) of cells are added to triplicate assay tubes containing 0.4 ml of either 6% perchloric acid (for total histamine content), vehicle control (for spontaneous release), or drug. The tubes are incubated at room temperature for 8 minutes, and then placed in a 37°C water bath for 2 more minutes. Buffer or challenge agents (at 37°C) are added to the tubes and they are incubated for an additional 45 minutes at 37°C in a shaking water bath. The tubes are then spun at 2000 RPM (1200 g) for 3 minutes to pellet the cells and the supernatants are removed and assayed for histamine by the fluorometric method.
A 300 µM stock solution of each test compound is prepared in distilled water, using 0.5 ml DMSO/100 ml and/or 0.2 ml of 1N NaOH or HCl and/or heat to aid in dissolution. Five ml of the stock solution is diluted (1:2) with 5 ml of two times concentrated HACM buffer to yield the stock working concentration of 150 µM. When added to the cells and stimulus, a final test concentration of 100 µM drug results. Further dilutions are made with HACM buffer for 33, 10, 3.3, 1.0 µM, etc.
Short ragweed and house dust extracts (Greer Laboratories, Inc.) are supplied as aqueous extracts in stock concentrations of 40,000 and 10,000 protein nitrogen units per milliliter (PNU/ml), respectively. Aqueous solutions of anti-IgE antisera (rabbit-raised antibody) are purchased from Dako via Accurate Chemicals. The aqueous solutions of ragweed, house dust, and anti-IgE are diluted 1:2 with two times concentrated HACM and then further diluted with HACM to yield final stock concentrations of 6000 PNU/ml for ragweed and house dust and 1:50 dilution for the anti-IgE antisera. Further dilutions for working solutions are made in HACM buffer. All stock and working solutions are stored at 4°C. Working solutions comprise 1/6 of the final volume in the cell reaction, therefore, working solutions of challenge agents are made up six times the required final concentration.
In each experiment, cells are challenged according to the previously determined sensitivity of that donor to the particular challenge agent. Short ragweed and house dust concentrations are expressed in PNU/ml, and anti-IgE antisera is expressed as dilutions, e.g., IE-5 (1:100,000), 3E-5 (1:30,000), and IE-4 (1:10,000).
The total histamine concentration in the "total" (acid-treated) samples must be 15 ng/ml to be acceptable. […]

[1] = tested on: carrageenan footpad edema; test: Carrageenan-induced rat foot paw edema-2 (CFE-2) assay; type: in vivo; conditions: dosed one hour before carrageenan, edema measured five hours after
Description: Carrageenan-Induced Rat Foot Paw Edema-2 (CEF-2) Assay: Protocol
Carrageenan solution (1% w/v) is prepared by dissolving 100 mg carrageenan (Marine Colloidal Div., Springfield, NJ) in 10 ml of sterile saline (0.9%) solution (Travenol). The solution is vortexed for 30 to 45 minutes. Animals are dosed with compound one hour before carrageenan challenge. Foot paw edema is induced by injecting 0.10 ml of the 1% carrageenan subcutaneously into the plantar portion of the right hind paw of each rat under light anesthesia. Initial foot paw volume is measured immediately following carrageenan challenge using mercury plethysmography (Buxco Electronics). Edemia is measured five hours after carrageenan. The difference between the five-hour and the initial paw volume is expressed as delta edema. The delta edema for each test group of animals is used to calculate the percent inhibition of edema achieved by the compound at the test dose compared with the vehicle control group. The ID₄₀ (the dose at which swelling is inhibited by 40%) is calculated by probit analysis for the dose at which 40 percent inhibition occurs.

cellular 5-lipoxygenase = molecular target: T1, cellular 5-lipoxygenase (Rattus norvegicus, UniProt P12527); test: ARBL whole cell 5-lipoxygenase assay (LTB₄ formation in RBL-1 cells); type: cell-based; conditions: A23187 stimulated, LTB₄ by RIA, read-out: ARBL Percent inhibition of cellular 5-lipoxygenase at 16 µM
T1 construct: ARBL/ARBC Whole Cell 5-Lipoxygenase and Cyclooxygenase Assays; host or cells: RBL-1 (rat basophilic leukemia) cells
T1 sequence (P12527 1-673): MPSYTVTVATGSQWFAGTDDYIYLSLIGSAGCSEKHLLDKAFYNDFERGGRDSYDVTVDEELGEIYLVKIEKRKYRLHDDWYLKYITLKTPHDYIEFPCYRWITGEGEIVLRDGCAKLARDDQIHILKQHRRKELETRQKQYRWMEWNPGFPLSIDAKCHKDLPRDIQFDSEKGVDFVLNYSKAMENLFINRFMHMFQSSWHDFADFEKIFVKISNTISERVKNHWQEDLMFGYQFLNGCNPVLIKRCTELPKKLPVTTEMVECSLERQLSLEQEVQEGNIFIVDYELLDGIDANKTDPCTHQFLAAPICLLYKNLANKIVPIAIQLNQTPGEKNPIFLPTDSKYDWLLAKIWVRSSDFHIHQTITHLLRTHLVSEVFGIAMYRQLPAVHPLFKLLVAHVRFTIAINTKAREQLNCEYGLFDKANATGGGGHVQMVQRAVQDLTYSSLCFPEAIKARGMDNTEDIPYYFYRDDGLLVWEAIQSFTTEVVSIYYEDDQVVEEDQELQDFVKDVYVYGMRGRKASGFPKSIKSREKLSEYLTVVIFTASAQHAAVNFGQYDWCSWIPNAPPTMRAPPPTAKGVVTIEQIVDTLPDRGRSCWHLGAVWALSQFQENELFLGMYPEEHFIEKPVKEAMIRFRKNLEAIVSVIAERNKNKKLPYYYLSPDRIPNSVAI
Description: (§1) ARBL/ARBC Whole Cell 5-Lipoxygenase and Cyclooxygenase Assays The rat basophilic Leukemia cell line (RBL-1) was obtained from the American Type Culture Collection (Rockville, MD). Radioimmunoassay (RIA) kits of LTB₄ and PGF2α were obtained from Amersham (Arlington Heights, IL) and Seragen (Boston, MA), respectively. RBL-1 cells are grown in suspension culture in Eagle's minimum essential medium supplemented with 12% fetal bovine serum at 37°C in an incubator supplied with air-5% carbon dioxide. Cells are harvested by centrifugation. They are washed with cold phosphate buffered saline pH 7.4 (PBS; NaCl, 7.1 g; Na₂HPO₄, 1.15 g; KH₂PO₄, 0.2 g; and KCl, 0.2 g/l). Cells are finally suspended in PBS containing 1.0 mM calcium at a density of 2 x 10⁶ cells/ml. […] Calcium ionophore A23187 (5 µM) is added and cells are incubated for seven minutes at 37°C. The reaction is stopped by chilling the tubes on ice for ten minutes. Cells are separated by centrifugation and the supernatant is stored at -20°. Aliquots (100 µl) are analyzed for LTB₄ and PGF2α using radioimmunoassay kits as provided by the supplier. Table 1 contains biochemical data obtained from this whole cell assay as IC₅₀s which are calculated as the amount of test compound causing 50% inhibition of LTB₄ or PGF2α formation.

[2] = tested on: cellular 5-cyclooxygenase; test: ARBC whole cell cyclooxygenase assay (PGF2α formation in RBL-1 cells); type: cell-based, rat; set-up: key: N inactive at screening concentration; conditions: A23187 stimulated, PGF2α by RIA
Description: as §1

[3] = 2-thioxo-4-oxazolidinone series

SMILES: COc1cc(OC)c(OC)cc1C=C1OC(=S)NC1=O [Example 9, 2-Thioxo-5-[(2,4,5-trimethoxyphenyl)methylene]-4-oxazolidinone]
HHB % Inhibition of Histamine Release at 33 µM (human basophils; [3]): *

inhibition at 16 µM (cellular 5-lipoxygenase): 100%
SMILES: CC(C)(C)c1cc(C=C2SC(=O)NC2=O)cc(C(C)(C)C)c1O [Example 2, 5-[[3,5-Bis(1,1-dimethylethyl)-4-hydroxyphenyl]methylene]-2,4-thiazolidinedione]
CFE Percent inhibition of carrageenan footpad edema (CFE) test ([1]; dose 1 mg/kg): 31.8 (1) %
CFE Percent inhibition of carrageenan footpad edema (CFE) test ([1]; dose 3 mg/kg): 39.8 (3) %
CFE Percent inhibition of carrageenan footpad edema (CFE) test ([1]; dose 10 mg/kg): 53.7 (10) %
CFE Percent inhibition of carrageenan footpad edema (CFE) test ([1]; dose 30 mg/kg): 58.8 (30) %
ARBC Percent inhibition of cellular 5-cyclooxygenase at 16 µM [2]: 95%
inhibition at 33 µM (human basophils; thiazolidinedione series): 49%

SMILES: COc1ccc(C=C2OC(=S)NC2=O)cc1OC [Example 5, 5-[(3,4-Dimethoxyphenyl)methylene]-2-thioxo-4-oxazolidinone]
inhibition at 33 µM (human basophils; [3]): 43%

inhibition at 16 µM (cellular 5-lipoxygenase): 95%
SMILES: CC(C)(C)c1cc(C=C2OC(=O)NC2=O)cc(C(C)(C)C)c1O [Example 15]
CFE Percent inhibition of carrageenan footpad edema (CFE) test ([1]; dose 1 mg/kg): 18.5 (1) %
CFE Percent inhibition of carrageenan footpad edema (CFE) test ([1]; dose 3 mg/kg): 23.5 (3) %
CFE Percent inhibition of carrageenan footpad edema (CFE) test ([1]; dose 10 mg/kg): 36.8 (10) %
CFE Percent inhibition of carrageenan footpad edema (CFE) test ([1]; dose 30 mg/kg): 39.4 (30) %
ARBC Percent inhibition of cellular 5-cyclooxygenase at 16 µM [2]: 89%

SMILES: COc1cc(C=C2OC(=S)NC2=O)cc(OC)c1OC [Example 10, 2-Thioxo-5-[(3,4,5-trimethoxyphenyl)methylene]-4-oxazolidinone]
inhibition at 33 µM (human basophils; [3]): 76%

SMILES: COc1cc(C=C2SC(=O)NC2=O)ccc1O [Example 3]
inhibition at 33 µM (human basophils; thiazolidinedione series): 81%

SMILES: COc1cc(C=C2OC(=S)NC2=O)cc(OC)c1O [Example 6, 5-[(4-Hydroxy-3,5-dimethoxyphenyl)methylene]-2-thioxo-4-oxazolidinone]
inhibition at 33 µM (human basophils; [3]): 89%

inhibition at 16 µM (cellular 5-lipoxygenase): 67%
SMILES: COc1cc(C=C2OC(=O)NC2=O)cc(OC)c1O [Example 16, 5-[(4-Hydroxy-3,5-dimethoxyphenyl)methylene]-2,4-oxazolidinedione]
ARBC Percent inhibition of cellular 5-cyclooxygenase at 16 µM [2]: N^(4)

SMILES: COc1cc(C=C2OC(=S)NC2=O)cc(Br)c1O [Example 8, 5-[(3-Bromo-4-hydroxy-5-methoxyphenyl)methylene]-2-thioxo-4-oxazolidinone]
HHB % Inhibition of Histamine Release at 33 µM (human basophils; [3]): *

inhibition at 16 µM (cellular 5-lipoxygenase): 92%
SMILES: CC(C)(C)c1cc(C=C2OC(=S)NC2=O)cc(C(C)(C)C)c1O [Example 14]
CFE Percent inhibition of carrageenan footpad edema (CFE) test ([1]; dose 1 mg/kg): 44.1 (1) %
CFE Percent inhibition of carrageenan footpad edema (CFE) test ([1]; dose 3 mg/kg): 41.1 (3) %
CFE Percent inhibition of carrageenan footpad edema (CFE) test ([1]; dose 10 mg/kg): 32.1 (10) %
CFE Percent inhibition of carrageenan footpad edema (CFE) test ([1]; dose 30 mg/kg): 40.4 (30) %
ARBC Percent inhibition of cellular 5-cyclooxygenase at 16 µM [2]: 86%

SMILES: COc1cc(C=C2SC(=O)NC2=O)cc(OC)c1O [Example 1, 5-[(4-Hydroxy-3,5-dimethoxyphenyl)methylene]-2,4-thiazolidinedione]
inhibition at 33 µM (human basophils; thiazolidinedione series): 60%

SMILES: COc1cc(C=C2OC(=S)NC2=O)ccc1O [Example 4, 5-[(4-Hydroxy-3-methoxyphenyl)methylene]-2-thioxo-4-oxazolidinone]
inhibition at 33 µM (human basophils; [3]): 77%

SMILES: O=C1NC(=S)OC1=Cc1ccc(O)c(Br)c1 [Example 13, 5-[(3-Bromo-4-hydroxyphenyl)methylene]-2-thioxo-4-oxazolidinone]
inhibition at 33 µM (human basophils; [3]): 66%
